# Measurements published in patent publication EP0238060B1, “Cephalosporin derivatives, processes for their preparation and antibacterial agents” (Banyu Pharmaceutical Co., Ltd., priority 1986, dated 1987).
# Read-outs that look alike come from different tables or passages of the source.
# What was measured:
# Experiment in all cases: In vitro antibacterial activity, agar plate dilution method (MIC)
# Ps.cepacia 23 = type: cell-based, Pseudomonas cepacia; details: read-out: Minimum Inhibitory Concentration (MIC: µg/ml)
# Experimental: (§1) The in vitro antibacterial activities of the compounds of the present invention against various microorganisms, were measured by the following agar plate dilution method. One platinum loopfull of each test microorganism incubated overnight in Mueller Hinton broth, was inoculated to Mueller Hinton agar (inoculum size: l0⁶ CFU/ml). Such culture media containing various antibiotics in various concentrations were prepared. After incubation at 37°C for l6 hours, the minimum inhibitory concentrations (MIC: µg/ml) were measured. As comparative compounds, Cefotaxime, Ceftazidime and the compounds of Reference Examples l to 4 were employed.
# Ps.maltophilia GN 12873 = type: cell-based, Pseudomonas maltophilia; details: Stenotrophomonas maltophilia, read-out: Minimum Inhibitory Concentration (MIC: µg/ml)
# Experimental: as §1
# S.marcescens No. 16-2 = type: cell-based; details: Serratia marcescens, read-out: Minimum Inhibitory Concentration (MIC: µg/ml)
# Experimental: as §1
# C.freundii GN346/16 = type: cell-based; details: Citrobacter freundii, read-out: Minimum Inhibitory Concentration (MIC: µg/ml)
# Experimental: as §1
# K.pneumoniae No. 42 = type: cell-based; details: Klebsiella pneumoniae, read-out: Minimum Inhibitory Concentration (MIC: µg/ml)
# Experimental: as §1
# E.cloacae Nek 39 = type: cell-based; details: Enterobacter cloacae, read-out: Minimum Inhibitory Concentration (MIC: µg/ml)
# Experimental: as §1
# K.pneumoniae PCI-602 = type: cell-based; details: Klebsiella pneumoniae, read-out: Minimum Inhibitory Concentration (MIC: µg/ml)
# Experimental: as §1
# K.oxytoca GN10650 = type: cell-based; details: Klebsiella oxytoca, read-out: Minimum Inhibitory Concentration (MIC: µg/ml)
# Experimental: as §1
# E.cloacae 963 = type: cell-based; details: read-out: Minimum Inhibitory Concentration (MIC: µg/ml)
# Experimental: as §1
# S.aureus JS1 = type: cell-based; details: Staphylococcus aureus, read-out: Minimum Inhibitory Concentration (MIC: µg/ml)
# Experimental: as §1
# Ps.aeruginosa AK 109 = type: cell-based; details: Pseudomonas aeruginosa, read-out: Minimum Inhibitory Concentration (MIC: µg/ml)
# Experimental: as §1
# M.luteus ATCC9341 = type: cell-based; details: Micrococcus luteus, read-out: Minimum Inhibitory Concentration (MIC: µg/ml)
# Experimental: as §1
# S.marcescens IAM 1184 = type: cell-based; details: Serratia marcescens, read-out: Minimum Inhibitory Concentration (MIC: µg/ml)
# Experimental: as §1
# A.calcoaceticus No. 4 = type: cell-based; details: Acinetobacter calcoaceticus, read-out: Minimum Inhibitory Concentration (MIC: µg/ml)
# Experimental: as §1
# E.coli CSH(RE45) = type: cell-based; details: Escherichia coli, 16 h, read-out: Minimum Inhibitory Concentration (MIC: µg/ml)
# Experimental: as §1
# Ps.aeruginosa IFO3445 = type: cell-based; details: Pseudomonas aeruginosa; Ps.aeruginosa IFO3445; Mueller Hinton agar, inoculum 10⁶ CFU/ml, 37°C, 16 hours; read-out: Minimum Inhibitory Concentration (MIC: µg/ml)
# Experimental: as §1
# Ps.aeruginosa AKR17 = type: cell-based; details: Pseudomonas aeruginosa; Ps.aeruginosa AKR17; Mueller Hinton agar, inoculum 10⁶ CFU/ml, 37°C, 16 hours; read-out: Minimum Inhibitory Concentration (MIC: µg/ml)
# Experimental: as §1
# P.vulgaris HX-19 = type: cell-based; details: Proteus vulgaris, read-out: Minimum Inhibitory Concentration (MIC: µg/ml)
# Experimental: as §1
# S.epidermidis IAM12012 = type: cell-based; details: Staphylococcus epidermidis, read-out: Minimum Inhibitory Concentration (MIC: µg/ml)
# Experimental: as §1
# C.freundii GN346 = type: cell-based; details: Citrobacter freundii, read-out: Minimum Inhibitory Concentration (MIC: µg/ml)
# Experimental: as §1
# E.coli CSH2 (RK1) = type: cell-based; details: Escherichia coli, 16 h, read-out: Minimum Inhibitory Concentration (MIC: µg/ml)
# Experimental: as §1
# P.vulgaris No. 33 = type: cell-based; details: Proteus vulgaris, read-out: Minimum Inhibitory Concentration (MIC: µg/ml)
# Experimental: as §1
# E.coli NIHJ JC2 = type: cell-based; details: Escherichia coli, read-out: Minimum Inhibitory Concentration (MIC: µg/ml)
# Experimental: as §1
# M.morganii GN5407 = type: cell-based; details: Morganella morganii, read-out: Minimum Inhibitory Concentration (MIC: µg/ml)
# Experimental: as §1
# S.aureus BB5703 = type: cell-based; details: Staphylococcus aureus, read-out: Minimum Inhibitory Concentration (MIC: µg/ml)
# Experimental: as §1
# E.coli GN5482 = type: cell-based; details: Escherichia coli, read-out: Minimum Inhibitory Concentration (MIC: µg/ml)
# Experimental: as §1
# S.aureus 209P NIHJ-JC1 = type: cell-based; details: Staphylococcus aureus, read-out: Minimum Inhibitory Concentration (MIC: µg/ml)
# Experimental: as §1
# [1] = Burkholderia cepacia, Ps.cepacia 23, Mueller Hinton agar, inoculum 10⁶ CFU/ml, 37°C, 16 hours
# [2] = GN12873, Ps.maltophilia GN 12873 (β-Lactamase-producing strain), Mueller Hinton agar, inoculum 10⁶ CFU/ml, 37°C, 16 hours
# [3] = NO.162, S.marcescens No. 16-2 (β-Lactamase-producing strain), Mueller Hinton agar, inoculum 10⁶ CFU/ml, 37°C, 16 hours
# [4] = C.freundii GN346/16, Mueller Hinton agar, inoculum 10⁶ CFU/ml, 37°C, 16 hours
# [5] = K.pneumoniae No. 42 (β-Lactamase-producing strain), Mueller Hinton agar, inoculum 10⁶ CFU/ml, 37°C, 16 hours
# [6] = NEK39, E.cloacae Nek 39 (β-Lactamase-producing strain), Mueller Hinton agar, inoculum 10⁶ CFU/ml, 37°C, 16 hours
# [7] = PCI602, K.pneumoniae PCI-602, Mueller Hinton agar, inoculum 10⁶ CFU/ml, 37°C, 16 hours
# [8] = K.oxytoca GN10650 (β-Lactamase-producing strain), Mueller Hinton agar, inoculum 10⁶ CFU/ml, 37°C, 16 hours
# [9] = Enterobacter cloacae, E.cloacae 963, Mueller Hinton agar, inoculum 10⁶ CFU/ml, 37°C, 16 hours
# [10] = S.aureus JS1 (β-Lactamase-producing strain), Mueller Hinton agar, inoculum 10⁶ CFU/ml, 37°C, 16 hours
# [11] = AK109, Ps.aeruginosa AK 109, Mueller Hinton agar, inoculum 10⁶ CFU/ml, 37°C, 16 hours
# [12] = M.luteus ATCC9341, Mueller Hinton agar, inoculum 10⁶ CFU/ml, 37°C, 16 hours
# [13] = IAM1184, S.marcescens IAM 1184, Mueller Hinton agar, inoculum 10⁶ CFU/ml, 37°C, 16 hours
# [14] = A.calcoaceticus No. 4, Mueller Hinton agar, inoculum 10⁶ CFU/ml, 37°C, 16 hours
# [15] = HX19, P.vulgaris HX-19, Mueller Hinton agar, inoculum 10⁶ CFU/ml, 37°C, 16 hours
# [16] = S.epidermidis IAM12012, Mueller Hinton agar, inoculum 10⁶ CFU/ml, 37°C, 16 hours
# [17] = C.freundii GN346 (β-Lactamase-producing strain), Mueller Hinton agar, inoculum 10⁶ CFU/ml, 37°C, 16 hours
# [18] = P.vulgaris No. 33 (β-Lactamase-producing strain), Mueller Hinton agar, inoculum 10⁶ CFU/ml, 37°C, 16 hours
# [19] = NIHJJC2, E.coli NIHJ JC2, Mueller Hinton agar, inoculum 10⁶ CFU/ml, 37°C, 16 hours
# [20] = M.morganii GN5407 (β-Lactamase-producing strain), Mueller Hinton agar, inoculum 10⁶ CFU/ml, 37°C, 16 hours
# [21] = S.aureus BB5703, Mueller Hinton agar, inoculum 10⁶ CFU/ml, 37°C, 16 hours
# [22] = E.coli GN5482 (β-Lactamase-producing strain), Mueller Hinton agar, inoculum 10⁶ CFU/ml, 37°C, 16 hours
# [23] = S.aureus 209P NIHJ-JC1, Mueller Hinton agar, inoculum 10⁶ CFU/ml, 37°C, 16 hours
compound,measurement,setting,value
"CC(C)(O/N=C(\C(=O)N[C@@H]1C(=O)N2C(C(=O)[O-])=C(C[n+]3ccccc3)CS[C@H]12)c1csc(N)n1)C(=O)O [Ceftazidime, reference compound]",MIC,"Ps.cepacia 23; Burkholderia cepacia, 23, 16 h",1.56 µg/mL
same,MIC,"Ps.maltophilia GN 12873; GN12873, 16 h",100 µg/mL
same,MIC,"S.marcescens No. 16-2; NO.162, 16 h",1.56 µg/mL
same,MIC,"C.freundii GN346/16; GN346, 16 h",0.2 µg/mL
same,MIC,"K.pneumoniae No. 42; NO.42, 16 h",0.39 µg/mL
same,MIC,"E.cloacae Nek 39; NEK39, 16 h",1.56 µg/mL
same,MIC,"K.pneumoniae PCI-602; PCI602, 16 h",0.125 µg/mL
same,MIC,"K.oxytoca GN10650; GN10650, 16 h",0.2 µg/mL
same,MIC,"E.cloacae 963; Enterobacter cloacae, 963, 16 h",0.2 µg/mL
same,MIC,"S.aureus JS1; JS1, 16 h",50 µg/mL
same,MIC,"Ps.aeruginosa AK 109; AK109, 16 h",1.56 µg/mL
same,MIC,"M.luteus ATCC9341; ATCC9341, 16 h",1.56 µg/mL
same,MIC,"S.marcescens IAM 1184; IAM1184, 16 h",0.025 µg/mL
same,MIC,"A.calcoaceticus No. 4; NO.4, 16 h",6.25 µg/mL
same,MIC,E.coli CSH(RE45),0.1 µg/mL
same,MIC,Ps.aeruginosa IFO3445,0.39 µg/mL
same,MIC,Ps.aeruginosa AKR17,> 100 µg/mL
same,MIC,"P.vulgaris HX-19; HX19, 16 h",0.025 µg/mL
same,MIC,"S.epidermidis IAM12012; IAM12012, 16 h",3.12 µg/mL
same,MIC,"C.freundii GN346; GN346, 16 h",25 µg/mL
same,MIC,E.coli CSH2 (RK1),0.1 µg/mL
same,MIC,"P.vulgaris No. 33; NO.33, 16 h",0.05 µg/mL
same,MIC,"E.coli NIHJ JC2; NIHJJC2, 16 h",0.2 µg/mL
same,MIC,"M.morganii GN5407; GN5407, 16 h",0.1 µg/mL
same,MIC,"S.aureus BB5703; BB5703, 16 h",25 µg/mL
same,MIC,"E.coli GN5482; GN5482, 16 h",3.12 µg/mL
same,MIC,S.aureus 209P NIHJ-JC1; 16 h,6.25 µg/mL
"CO/N=C(\C(=O)NC1C(=O)N2C(C(=O)[O-])=C(C[n+]3ccc4cc(O)c(O)cc4c3)CSC12)c1csc(N)n1 (stereo not drawn) [Ex. 1, 7-[2-(2-aminothiazol-4-yl)-2-methoxyiminoacetamido]-3-(6,7-dihydroxy-2-isoquinolinio)-methyl-3-cephem-4-carboxylate]",MIC,Ps.cepacia 23; [1],0.78 µg/mL
same,MIC,Ps.maltophilia GN 12873; [2],> 100 µg/mL
same,MIC,S.marcescens No. 16-2; [3],3.12 µg/mL
same,MIC,C.freundii GN346/16; [4],0.78 µg/mL
same,MIC,K.pneumoniae No. 42; [5],0.025 µg/mL
same,MIC,E.cloacae Nek 39; [6],0.1 µg/mL
same,MIC,K.pneumoniae PCI-602; [7],< 0.006 µg/mL
same,MIC,K.oxytoca GN10650; [8],0.78 µg/mL
same,MIC,E.cloacae 963; [9],0.025 µg/mL
same,MIC,S.aureus JS1; [10],25 µg/mL
same,MIC,Ps.aeruginosa AK 109; [11],0.78 µg/mL
same,MIC,M.luteus ATCC9341; [12],0.1 µg/mL
same,MIC,S.marcescens IAM 1184; [13],0.0125 µg/mL
same,MIC,A.calcoaceticus No. 4; [14],0.2 µg/mL
same,MIC,E.coli CSH(RE45),0.78 µg/mL
same,MIC,Ps.aeruginosa IFO3445,0.78 µg/mL
same,MIC,Ps.aeruginosa AKR17,100 µg/mL
same,MIC,P.vulgaris HX-19; [15],< 0.006 µg/mL
same,MIC,S.epidermidis IAM12012; [16],0.78 µg/mL
same,MIC,C.freundii GN346; [17],25 µg/mL
same,MIC,E.coli CSH2 (RK1),< 0.006 µg/mL
same,MIC,P.vulgaris No. 33; [18],0.1 µg/mL
same,MIC,E.coli NIHJ JC2; [19],0.05 µg/mL
same,MIC,M.morganii GN5407; [20],0.1 µg/mL
same,MIC,S.aureus BB5703; [21],3.12 µg/mL
same,MIC,E.coli GN5482; [22],0.39 µg/mL
same,MIC,S.aureus 209P NIHJ-JC1; [23],1.56 µg/mL
"CC(C)ON=C(C(=O)NC1C(=O)N2C(C(=O)[O-])=C(C[n+]3ccc4cc(O)c(O)cc4c3)CS[C@H]12)c1csc(N)n1 (stereo partly drawn) [Ex. 2, 7-[2-(2-aminothiazol-4-yl)-2-isopropoxyiminoacetamido]-3-(6,7-dihydroxy-2-isoquinolinio)methyl-3-cephem-4-carboxylate]",MIC,Ps.cepacia 23; [1],0.1 µg/mL
same,MIC,Ps.maltophilia GN 12873; [2],100 µg/mL
same,MIC,S.marcescens No. 16-2; [3],0.78 µg/mL
same,MIC,C.freundii GN346/16; [4],0.78 µg/mL
same,MIC,K.pneumoniae No. 42; [5],0.025 µg/mL
same,MIC,E.cloacae Nek 39; [6],0.05 µg/mL
same,MIC,K.pneumoniae PCI-602; [7],< 0.006 µg/mL
same,MIC,K.oxytoca GN10650; [8],0.39 µg/mL
same,MIC,E.cloacae 963; [9],0.025 µg/mL
same,MIC,S.aureus JS1; [10],12.5 µg/mL
same,MIC,Ps.aeruginosa AK 109; [11],0.78 µg/mL
same,MIC,M.luteus ATCC9341; [12],0.1 µg/mL
same,MIC,S.marcescens IAM 1184; [13],0.0125 µg/mL
same,MIC,A.calcoaceticus No. 4; [14],0.2 µg/mL
same,MIC,E.coli CSH(RE45),0.39 µg/mL
same,MIC,Ps.aeruginosa IFO3445,0.78 µg/mL
same,MIC,Ps.aeruginosa AKR17,25 µg/mL
same,MIC,P.vulgaris HX-19; [15],< 0.006 µg/mL
same,MIC,S.epidermidis IAM12012; [16],0.78 µg/mL
same,MIC,C.freundii GN346; [17],50 µg/mL
same,MIC,E.coli CSH2 (RK1),< 0.006 µg/mL
same,MIC,P.vulgaris No. 33; [18],0.05 µg/mL
same,MIC,E.coli NIHJ JC2; [19],0.1 µg/mL
same,MIC,M.morganii GN5407; [20],0.05 µg/mL
same,MIC,S.aureus BB5703; [21],6.25 µg/mL
same,MIC,E.coli GN5482; [22],0.39 µg/mL
same,MIC,S.aureus 209P NIHJ-JC1; [23],1.56 µg/mL
